This is an account of results in PubChem BioAssay (NCI).

Test systems include BT-549 breast; UACC-257 melanoma; T-47D breast; MCF7 breast; EKVX NSCLC; SK-OV-3 ovarian; MDA-MB-435.
Holding throughout (test): growth of human tumour cells (NCI), 48 h

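These data come from cells grown in 96-well plates and exposed to compound for 48 hours at five concentrations. The concentration for 50% growth inhibition is given as GI50. TGI: concentration producing complete growth inhibition.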 Where only a bound is given, the exact number is not on record here.

`NCCCn1c2c(c3ccc([N+](=O)[O-])cc3c1=O)C(=O)c1cc(Cl)ccc1-2`: the GI50 is 0.0635 µM in the assay on BT-549 breast; 0.0526 µM in the assay on UACC-257 melanoma; less than 0.01 µM with T-47D breast; less than 0.01 µM in the assay on MCF7 breast; 0.0241 µM in the assay with EKVX NSCLC; less than 0.01 µM with SK-OV-3 ovarian. Further, the TGI in the assay on BT-549 breast was 1.4 µM; with UACC-257 melanoma, 1.31 µM; in the assay with T-47D breast, 1.2 µM; with MCF7 breast, 0.141 µM; in the assay with EKVX NSCLC, 0.189 µM; in the assay with SK-OV-3 ovarian it was 0.197 µM.

As to `C=C(C)C(=O)N1c2ccc(OC)cc2CC1C(=O)OCC` (stereo not given), the TGI in the assay on BT-549 breast, in the assay with UACC-257 melanoma, in the assay on T-47D breast, with MCF7 breast, with EKVX NSCLC and in the assay on SK-OV-3 ovarian was more than 100 µM in each case.

`C#CCOc1cccc(Nc2ncnc3c2ncn3C2CCN(C(=O)CCl)C2)c1` (stereo not given): the GI50 is 12.1 µM in the assay with BT-549 breast; 26.3 µM with UACC-257 melanoma; 20.4 µM with MDA-MB-435; 18.7 µM with MCF7 breast; 26.1 µM with EKVX NSCLC; more than 100 µM in the assay on SK-OV-3 ovarian. The TGI in the assay with BT-549 breast is 26.6 µM; in the assay on UACC-257 melanoma, 79.2 µM; in the assay with MDA-MB-435, 53.5 µM; in the assay on MCF7 breast, 41.4 µM; in the assay with EKVX NSCLC it was 74.2 µM; in the assay with SK-OV-3 ovarian, more than 100 µM.

For `O=C1C(Cl)=C(Nc2ccc3c(c2NC2=C(Cl)C(=O)c4ccccc4C2=O)C(=O)c2ccccc2C3=O)C(=O)c2ccccc21`, the GI50 is 1.36 µM in the assay on BT-549 breast; 1.88 µM in the assay with UACC-257 melanoma; 0.346 µM with MDA-MB-435; 2.19 µM in the assay with T-47D breast; 1.83 µM with EKVX NSCLC; 6.52 µM in the assay on SK-OV-3 ovarian. For the same compound, the TGI with BT-549 breast amounted to 2.83 µM; in the assay on UACC-257 melanoma, 3.95 µM; in the assay on MDA-MB-435, 1.04 µM; with T-47D breast, 5.99 µM; in the assay with EKVX NSCLC, 4.18 µM; in the assay with SK-OV-3 ovarian it was 20.6 µM.

For `COc1cc2c(cc1-c1c(C)noc1C)ncc1[nH]c(=O)n([C@H](C)c3ccccn3)c12`, the GI50 in the assay with BT-549 breast is 13.1 µM; with UACC-257 melanoma, 0.415 µM; in the assay with MDA-MB-435 it was 0.474 µM; with T-47D breast it was 1.22 µM; with MCF7 breast it was 0.195 µM; in the assay with SK-OV-3 ovarian it was 0.6 µM. For the same compound, the TGI with BT-549 breast was more than 100 µM; in the assay with UACC-257 melanoma, more than 100 µM; in the assay on MDA-MB-435, more than 100 µM; with T-47D breast it was more than 100 µM; in the assay on MCF7 breast it was more than 100 µM; in the assay on SK-OV-3 ovarian, more than 50.1 µM.

With `COc1cccc2cc(N(C)c3nc(C)nc4ccsc34)ccc12`, the GI50 was less than 0.01 µM in the assay with BT-549 breast; 10.8 µM in the assay with UACC-257 melanoma; less than 0.01 µM with T-47D breast; less than 0.01 µM in the assay with MCF7 breast; less than 0.01 µM with EKVX NSCLC; less than 0.01 µM in the assay on SK-OV-3 ovarian. Moreover, the TGI is 1.3 µM in the assay on BT-549 breast; 27 µM with UACC-257 melanoma; more than 100 µM in the assay with T-47D breast; 16.3 µM in the assay with MCF7 breast; 21.1 µM in the assay with EKVX NSCLC; 35.8 µM in the assay on SK-OV-3 ovarian.

Take `Cc1sc2c(c1C)C(c1ccc(Cl)cc1)=N[C@@H](CC(=O)Nc1ccc(O)cc1)c1nnc(C)n1-2`: the GI50 in the assay with BT-549 breast is 4.17 µM; in the assay on UACC-257 melanoma, 0.632 µM; in the assay on MDA-MB-435, 0.399 µM; with T-47D breast, 0.245 µM; in the assay on MCF7 breast, 0.0553 µM; in the assay with SK-OV-3 ovarian it was 0.15 µM. Further, the TGI stood at 24.2 µM in the assay on BT-549 breast; 26.9 µM in the assay with UACC-257 melanoma; 19 µM in the assay with MDA-MB-435; 28.2 µM in the assay on T-47D breast; 18.2 µM with MCF7 breast; 15 µM with SK-OV-3 ovarian.

Take `CCOC(CN(C)C(=O)OCC(Cl)(Cl)Cl)OCC`: the TGI with BT-549 breast, with UACC-257 melanoma, with MDA-MB-435, in the assay with MCF7 breast, with EKVX NSCLC and in the assay on SK-OV-3 ovarian was more than 100 µM in each case.

Turning to `O=C1/C(=C/c2ccc(C(F)(F)F)cc2)COc2ccc(O)cc21`, the GI50 was 4.29 µM with BT-549 breast; 8.06 µM with UACC-257 melanoma; 2.41 µM with MDA-MB-435; 2.03 µM in the assay on T-47D breast; 10.7 µM in the assay on EKVX NSCLC; 16.2 µM in the assay with SK-OV-3 ovarian. Further, the TGI with BT-549 breast amounted to 15.5 µM; in the assay with UACC-257 melanoma, 20.9 µM; with MDA-MB-435, 6.54 µM; with T-47D breast it was 4.76 µM; in the assay on EKVX NSCLC it was 22.5 µM; in the assay on SK-OV-3 ovarian, 29.7 µM.

Take `ClC1=C(Cl)C(Cl)=C(Cl)C1=Cc1ccc(Cl)cc1Cl`: the GI50 in the assay with BT-549 breast is 0.277 µM; with MDA-MB-435, 0.521 µM; with T-47D breast it was 0.252 µM; in the assay with MCF7 breast it was 0.319 µM; in the assay with EKVX NSCLC, 0.523 µM; in the assay on SK-OV-3 ovarian, 1.74 µM. Besides, the TGI with BT-549 breast is 0.809 µM; with MDA-MB-435, 2.05 µM; with T-47D breast, 1.3 µM; in the assay on MCF7 breast it was more than 100 µM; in the assay with EKVX NSCLC it was 4.37 µM; in the assay on SK-OV-3 ovarian, 5.98 µM.

For `CC1CCC(C#N)(NOC2=NCCN2)CC1` (stereo not given), the GI50 in the assay with BT-549 breast was 31.3 µM; with UACC-257 melanoma it was more than 100 µM; in the assay with MDA-MB-435, 29.2 µM; in the assay with MCF7 breast, 55.6 µM; in the assay with EKVX NSCLC, 36.1 µM. For the same compound, the TGI in the assay on BT-549 breast, with UACC-257 melanoma, in the assay on MDA-MB-435, with MCF7 breast and in the assay on EKVX NSCLC was more than 100 µM throughout.

Consider `Cc1ccc2oc(=O)cc(C3c4ccc([nH]4)C(c4cc(=O)oc5ccc(C)cc45)c4ccc([nH]4)C(c4cc(=O)oc5ccc(C)cc45)c4ccc([nH]4)C(c4cc(=O)oc5ccc(C)cc45)c4ccc3[nH]4)c2c1` (stereo not given), for which the GI50 with BT-549 breast was 0.0299 µM; in the assay with UACC-257 melanoma it was 0.183 µM; in the assay on T-47D breast, 0.0434 µM; in the assay on MCF7 breast it was 0.0394 µM; in the assay on EKVX NSCLC, 0.0632 µM; in the assay with SK-OV-3 ovarian, 0.0247 µM. For the same compound, the TGI with BT-549 breast amounted to 0.183 µM; in the assay on UACC-257 melanoma it was 2.46 µM; in the assay with T-47D breast it was 2.99 µM; in the assay with MCF7 breast, 1.95 µM; with EKVX NSCLC it was 4.48 µM; in the assay on SK-OV-3 ovarian it was 0.0687 µM.
